This is an account of results in ChEMBL document CHEMBL5120753, “Isolation and biological activity of azocine and azocane alkaloids” (Bioorg Med Chem, 2022).

For one series, the system named is L1210. The series can be described thus: Cytotoxicity against mouse L1210 cells assessed as cell growth inhibition. In kind it is functional, cell-based.
The target in series [1] is Cyclin-dependent kinase 4 (Homo sapiens, UniProt P11802). Briefly: Inhibition of CDK4 (unknown origin).
The next series concerns Corynebacterium xerosis. The series can be described thus: Antibacterial activity against Corynebacterium xerosis assessed as bacterial growth inhibition. It counts as functional.
The test system of series [2] is Trichophyton mentagrophytes. Briefly: […] activity against Trichophyton mentagrophytes assessed as […]. In kind it is functional.
The nature of series [3]: Toxicity in mouse assessed as lethal dose. The following applies: in vivo.

SMILES strings stand for the structures. Converted amounts (≈) assume the structure as drawn.

Sequence of Cyclin-dependent kinase 4 (P11802 whole entry): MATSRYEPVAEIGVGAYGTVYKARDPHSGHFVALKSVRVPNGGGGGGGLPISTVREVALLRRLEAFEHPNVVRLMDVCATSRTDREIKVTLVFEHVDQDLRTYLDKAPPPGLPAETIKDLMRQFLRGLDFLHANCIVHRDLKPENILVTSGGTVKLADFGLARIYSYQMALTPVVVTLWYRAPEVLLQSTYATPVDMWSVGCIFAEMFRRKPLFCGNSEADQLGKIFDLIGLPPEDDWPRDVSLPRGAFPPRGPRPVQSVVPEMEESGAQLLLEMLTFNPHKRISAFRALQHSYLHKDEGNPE

For `C1=C\CCc2cc3c(o2)[C@@H]2N4CCCC/C=C\[C@H]4C[C@@]24CN(CCCC/1)CC[C@@H]34`, the IC50 is 1.3 µg/mL (≈ 3.31 µM) in the series on L1210 and 25.2 µM in series [1]. In addition, the MIC with Corynebacterium xerosis amounted to 11 µg/mL (≈ 28 µM); in series [2], 23 µg/mL (≈ 58.6 µM).

On to `C[N@@+]12CC[C@]34c5ccccc5N5/C=C6\[C@@H]7N(/C=C(\[C@H]53)[C@H](C[C@@H]41)/C(=C\CO)C2)c1ccccc1[C@@]71CC[N@@+]2(C)C/C(=C/CO)[C@H]6C[C@@H]12`, for which the LD in series [3] amounted to 0.8 mg/kg.
